The source of these data is paper PMC4511920 (Molecular cancer research : MCR, 2015).

Broadly, the pIC50 is the negative decadic logarithm of the IC50, by convention in mol/L.

The subject of one data set is DYRK1B. The following applies: Target DYRK1B; NCGC compounds; cited from earlier work.
The test system of data set [1] is endogenous NKX3.1 in LNCaP cells. In words: Endogenous NKX3.1 half-life in LNCaP cells exposed to cycloheximide, immunoblot. Type of data set: cell-based, human. In general terms: Immunoblotting shows a protein as a band on a membrane.
Data set [2] deals with DYRK and CLK family kinases. The settings on record: cited from earlier work.

pIC50: −log10 of the molar value.

As for `Cc1nc(CNc2ncnc3ccc(-c4ccc5c(c4)OCO5)cc23)cs1` [NCGC00185963], the pIC50 with DYRK1B was 5.82.

Consider `Cc1nc(CN(C)c2ncnc3ccc(-c4ccc5c(c4)OCO5)cc23)cs1` [NCGC00185981], for which the “Effect on NKX3.1 half-life / degradation (in words)” value in data set [1] is listed as “most active compound”. Also, the negative-log IC50 (pIC50) with DYRK1B was 7.60. In data set [2], the “Kinase specificity (in words)” value is “specificity against both DYRK and CLK family kinases”.

With `CN(Cc1cccs1)c1ncnc2ccc(-c3ccc4c(c3)OCO4)cc12` [NCGC00185984], in the data set on DYRK1B, the negative-log IC50 (pIC50) is 7.14. The “Kinase specificity (in words)” value in data set [2] is “no specificity for CLK kinases”.

As for `c1coc(CCNc2ncnc3ccc(-c4ccc5c(c4)OCO5)cc23)c1` [NCGC00185976], the negative-log IC50 (pIC50) in the data set on DYRK1B was 6.99.
